Target: ATX (human His-tagged) (Homo sapiens (Human), UniProt Q13822)
Assay: Human ATX enzyme inhibition assay (fluorescence quenching, MR121 substrate)
Format: biochemical
Settings: 30 nM ATX, 1 μM MR121 substrate, 30° C., pH 8.0
How it was run: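 Tris-HCl buffer at pH 8.0 contained 140 mM NaCl, 5 mM KCl, 1 mM each CaCl2 and MgCl2, and 0.01% Triton X-100. The MR121 substrate (1 μM final) was incubated with enzyme for 15 min at 30 °C, and activity was read by fluorescence quenching.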

Row | SMILES | IC50 [nM]
1 | N#Cc1ccc(/C=C/C(=O)N2CC[C@@H]3CN(C(=O)c4ccc5[nH]nnc5c4)C[C@@H]3CC2)cc1 [Example 15.11] | 13
2 | O=C(/C=C/c1ccc(OC(F)(F)F)cc1)N1C[C@@H]2CN(C(=O)c3ccc4[nH]nnc4c3)C[C@H]2C1 [Example 15.12] | 6
3 | O=C(CCc1ccc(OC(F)(F)F)cc1)N1C[C@@H]2CN(C(=O)c3ccc4[nH]nnc4c3)C[C@@H]2C1 [Example 15.13] | 114
4 | O=C(/C=C/c1ccc(F)cc1)N1CC[C@@H]2CN(C(=O)c3ccc4[nH]nnc4c3)C[C@@H]2CC1 [Example 15.14] | 62
5 | O=C(/C=C/c1ccccc1)N1CC[C@@H]2CN(C(=O)c3ccc4[nH]nnc4c3)C[C@@H]2CC1 [Example 15.15] | 156
6 | O=C(/C=C/c1ccccn1)N1CC[C@@H]2CN(C(=O)c3ccc4[nH]nnc4c3)C[C@@H]2CC1 [Example 15.16] | 5790
7 | O=C(/C=C/c1cccnc1)N1CC[C@@H]2CN(C(=O)c3ccc4[nH]nnc4c3)C[C@@H]2CC1 [Example 15.17] | 3950
8 | O=C(/C=C/c1cccc(Cl)c1)N1CC[C@@H]2CN(C(=O)c3ccc4[nH]nnc4c3)C[C@@H]2CC1 [Example 15.18] | 20
9 | O=C(/C=C/c1ccc(Cl)cc1)N1C[C@H]2CCN(C(=O)c3ccc4[nH]nnc4c3)CC[C@H]2C1 [Example 15.19] | 9
10 | O=C(/C=C/c1cccc(OC(F)(F)F)c1)N1C[C@H]2CCN(C(=O)c3ccc4[nH]nnc4c3)CC[C@H]2C1 [Example 15.20] | 49
11 | O=C(/C=C/c1ccc(OC(F)F)cc1)N1CC[C@@H]2CN(C(=O)c3ccc4[nH]nnc4c3)C[C@@H]2CC1 [Example 15.21] | 5
12 | O=C(/C=C/c1cccc(OC(F)(F)F)c1)N1C[C@@H]2CN(C(=O)c3ccc4[nH]nnc4c3)C[C@H]2C1 [Example 15.22] | 53
13 | N#Cc1ccc(/C=C/C(=O)N2C[C@@H]3CN(C(=O)c4ccc5[nH]nnc5c4)C[C@H]3C2)cc1 [Example 15.23] | 32
14 | O=C(/C=C/c1ccc(OC(F)(F)F)cc1)N1C[C@@H]2CN(C(=O)c3ccc4[nH]nnc4c3)C[C@H]2C1 [Example 15.24] | 10
15 | O=C(/C=C/c1cc(Cl)cc(Cl)c1)N1CC[C@@H]2CN(C(=O)c3ccc4[nH]nnc4c3)C[C@@H]2CC1 [Example 15.27] | 2
16 | O=C(/C=C/c1ccncc1)N1CC[C@@H]2CN(C(=O)c3ccc4[nH]nnc4c3)C[C@@H]2CC1 [Example 15.28] | 4420
17 | O=C(/C=C/c1ccc(F)cc1F)N1CC[C@@H]2CN(C(=O)c3ccc4[nH]nnc4c3)C[C@@H]2CC1 [Example 15.29] | 34
18 | O=C(/C=C/c1ccc(Cl)cc1Cl)N1CC[C@@H]2CN(C(=O)c3ccc4[nH]nnc4c3)C[C@@H]2CC1 [Example 15.30] | 14
19 | O=C(/C=C/c1ccc(Cl)c(Cl)c1)N1CC[C@@H]2CN(C(=O)c3ccc4[nH]nnc4c3)C[C@@H]2CC1 [Example 15.31] | 38
20 | N#Cc1ccc(/C=C/C(=O)N2CC[C@@H]3CN(C(=O)c4ccc5[nH]nnc5c4)C[C@@H]3CC2)c(F)c1 [Example 15.34] | 3

Row | SMILES | IC50 [nM]
21 | N#Cc1ccc(/C=C/C(=O)N2C[C@@H]3CN(C(=O)c4ccc5[nH]nnc5c4)C[C@H]3C2)c(F)c1 [Example 15.35] | 31
22 | O=C(/C=C/c1ccc(OC(F)F)cc1)N1C[C@@H]2CN(C(=O)c3ccc4[nH]nnc4c3)C[C@H]2C1 [Example 15.36, (E)-1-((3aR,6aR)-5-(1H-benzo[d][1,2,3]triazole-5-carbonyl)hexahydro-pyrrolo[3,4-c]pyrrol-2(1H)-yl)-3-(4-(difluoromethoxy)phenyl)-prop-2-en-1-one] | 3
23 | O=C(/C=C/c1ccc(OC(F)(F)F)cc1)N1CC[C@H]2CN(C(=O)c3ccc4[nH]nnc4c3)C[C@H]2C1 [Example 15.37] | 93
24 | N#Cc1cccc(/C=C/C(=O)N2CC[C@@H]3CN(C(=O)c4ccc5[nH]nnc5c4)C[C@@H]3CC2)c1 [Example 15.38] | 50
25 | O=C(/C=C/c1ccc(OC(F)(F)F)cc1F)N1CC[C@@H]2CN(C(=O)c3ccc4[nH]nnc4c3)C[C@@H]2CC1 [Example 15.39] | 5
26 | O=C(/C=C/c1ccc(OC(F)(F)F)cc1F)N1C[C@@H]2CN(C(=O)c3ccc4[nH]nnc4c3)C[C@H]2C1 [Example 15.40, (E)-1-((3aR,6aR)-5-(1H-benzo[d][1,2,3]triazole-5-carbonyl)hexahydro-pyrrolo[3,4-c]pyrrol-2(1H)-yl)-3-(2-fluoro-4-(trifluoromethoxy)phenyl)-prop-2-en-1-one] | 5
27 | O=C(/C=C/c1ccc(Cl)cc1F)N1C[C@@H]2CN(C(=O)c3ccc4[nH]nnc4c3)C[C@H]2C1 [Example 15.41] | 17
28 | O=C(/C=C/c1cc(Cl)cc(Cl)c1)N1C[C@@H]2CN(C(=O)c3ccc4[nH]nnc4c3)C[C@H]2C1 [Example 15.42] | 6
29 | O=C(/C=C/c1ccc(OC(F)(F)F)cc1)N1C[C@@H]2CN(C(=O)C3CCc4[nH]nnc4C3)C[C@@H]2C1 (stereo partly shown) [Example 15.43] | 130
30 | O=C(CCc1ccc(OC(F)(F)F)cc1)N1C[C@@H]2CN(C(=O)c3ccc4[nH]nnc4c3)C[C@H]2C1 [Example 15.44] | 6
31 | CS(=O)(=O)c1cc(Cl)cc(/C=C/C(=O)N2C[C@@H]3CN(C(=O)c4ccc5[nH]nnc5c4)C[C@H]3C2)c1 [Example 15.46] | 18
32 | COc1cc(/C=C/C(=O)N2C[C@@H]3CN(C(=O)c4ccc5[nH]nnc5c4)C[C@H]3C2)cc(OC)c1 [Example 15.47] | 96
33 | O=C(/C=C/c1cc(Cl)cc(OC(F)(F)F)c1)N1C[C@@H]2CN(C(=O)c3ccc4[nH]nnc4c3)C[C@H]2C1 [Example 15.48] | 6
34 | COc1cc(Cl)cc(/C=C/C(=O)N2C[C@@H]3CN(C(=O)c4ccc5[nH]nnc5c4)C[C@H]3C2)c1 [Example 15.49] | 16
35 | N#Cc1cc(Cl)cc(/C=C/C(=O)N2C[C@@H]3CN(C(=O)c4ccc5[nH]nnc5c4)C[C@H]3C2)c1 [Example 15.50] | 6
36 | COc1cc(/C=C/C(=O)N2C[C@@H]3CN(C(=O)c4ccc5[nH]nnc5c4)C[C@H]3C2)cc(OC(F)(F)F)c1 [Example 15.51, (E)-1-[(3aR,6aR)-5-(1H-benzotriazole-5-carbonyl)-hexahydro-pyrrolo[3,4-c]pyrrol-2-yl]-3-(3-methoxy-5-trifluoromethoxy-phenyl)-prop-2-ene-1-one] | 6
37 | O=C1N[C@@H]2CCN(C(=O)N3C[C@H]4CN(C(=O)/C=C/c5ccc(OC(F)(F)F)cc5)C[C@@H]4C3)C[C@H]2O1 [Example 15.54] | 280
38 | O=C1N[C@@H]2CCN(C(=O)N3C[C@H]4CN(C(=O)CCc5ccc(OC(F)(F)F)cc5)C[C@@H]4C3)C[C@H]2O1 [Example 15.55] | 478
39 | O=C(/C=C/c1ccccc1)N1C[C@@H]2CN(C(=O)c3ccc4[nH]nnc4c3)C[C@H]2C1 [Example 15.56] | 655
40 | O=C(CCc1ccccc1)N1C[C@@H]2CN(C(=O)c3ccc4[nH]nnc4c3)C[C@H]2C1 [Example 15.57] | 494

— patent US10669268B2, “Bicyclic derivatives” (Hoffmann-La Roche Inc., priority 2012, dated 2020)
